Earlier results as cited in US20090023693A1, “NEW DROSPIRENONE/17BETA-ESTRADIOL REGIMEN, PHARMACEUTICAL COMBINATION PRODUCT AND KIT FOR PERFORMING THIS REGIMEN” (priority 2007, published 2009).

Assays:
[1] = target: T1, mineralocorticoid receptor (Homo sapiens, UniProt P08235); details: compared with aldosterone
T1 sequence (P08235 1-984): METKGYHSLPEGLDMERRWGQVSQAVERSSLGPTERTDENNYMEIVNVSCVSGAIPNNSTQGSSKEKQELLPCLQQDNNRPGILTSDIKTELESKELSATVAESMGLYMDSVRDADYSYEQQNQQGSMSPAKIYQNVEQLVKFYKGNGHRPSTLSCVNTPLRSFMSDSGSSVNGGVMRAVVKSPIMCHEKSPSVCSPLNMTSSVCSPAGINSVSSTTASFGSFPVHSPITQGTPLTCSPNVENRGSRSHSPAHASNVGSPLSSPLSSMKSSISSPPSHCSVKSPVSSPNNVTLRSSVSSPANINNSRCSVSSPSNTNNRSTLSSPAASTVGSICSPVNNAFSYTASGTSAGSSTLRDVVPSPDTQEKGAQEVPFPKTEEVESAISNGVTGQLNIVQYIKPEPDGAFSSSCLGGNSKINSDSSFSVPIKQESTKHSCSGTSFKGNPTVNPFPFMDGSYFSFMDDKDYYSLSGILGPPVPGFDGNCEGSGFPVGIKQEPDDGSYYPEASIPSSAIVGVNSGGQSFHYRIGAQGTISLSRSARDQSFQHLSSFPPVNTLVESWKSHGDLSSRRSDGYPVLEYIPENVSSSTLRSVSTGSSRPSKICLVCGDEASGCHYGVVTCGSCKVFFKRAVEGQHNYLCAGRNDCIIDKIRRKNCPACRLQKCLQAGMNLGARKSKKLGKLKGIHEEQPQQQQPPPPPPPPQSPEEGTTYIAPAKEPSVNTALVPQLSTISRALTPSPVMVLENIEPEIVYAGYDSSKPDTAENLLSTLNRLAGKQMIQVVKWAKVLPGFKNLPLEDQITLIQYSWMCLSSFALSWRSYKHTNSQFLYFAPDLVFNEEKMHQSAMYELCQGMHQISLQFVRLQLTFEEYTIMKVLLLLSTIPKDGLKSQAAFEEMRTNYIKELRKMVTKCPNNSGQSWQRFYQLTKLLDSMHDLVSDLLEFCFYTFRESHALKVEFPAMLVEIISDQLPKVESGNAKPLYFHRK

[2] = oral vs transdermal

affinity for the mineralocorticoid receptor relative to aldosterone [1]: about five times that of aldosterone | bioavailabilities after oral and transdermal administration [2]: roughly the same
SMILES: C[C@]12CCC(=O)C=C1[C@@H]1C[C@@H]1[C@H]1[C@@H]3[C@@H]4C[C@@H]4[C@@]4(CCC(=O)O4)[C@@]3(C)CC[C@@H]12 [drospirenone, Drospirenone]
blood pressure (hypertensive women): lowered | salt and water retention (in vivo): reduced
